Results from ChEMBL document CHEMBL1149398, “Pyrrolizidine esters and amides as 5-HT4 receptor agonists and antagonists” (J Med Chem, 2006).
Active and inactive are the calls of the source. The rule behind the calls is not given here.

Assays:
[1] = molecular target: T1, 5-hydroxytryptamine receptor 4 (Cavia porcellus, UniProt O70528); assay: Displacement of [3H]GR-113808 from 5HT4 receptor in guinea pig striatum
[2] = molecular target: T2, Serotonin 3 (5-HT3) receptor (Rattus norvegicus, UniProt P35563+Q9JJ16); assay: Displacement of [3H]GR65630 from 5HT3 receptor in brain cortex from Wistar rat; type: tissue-based
T2 sequence (P35563 whole entry): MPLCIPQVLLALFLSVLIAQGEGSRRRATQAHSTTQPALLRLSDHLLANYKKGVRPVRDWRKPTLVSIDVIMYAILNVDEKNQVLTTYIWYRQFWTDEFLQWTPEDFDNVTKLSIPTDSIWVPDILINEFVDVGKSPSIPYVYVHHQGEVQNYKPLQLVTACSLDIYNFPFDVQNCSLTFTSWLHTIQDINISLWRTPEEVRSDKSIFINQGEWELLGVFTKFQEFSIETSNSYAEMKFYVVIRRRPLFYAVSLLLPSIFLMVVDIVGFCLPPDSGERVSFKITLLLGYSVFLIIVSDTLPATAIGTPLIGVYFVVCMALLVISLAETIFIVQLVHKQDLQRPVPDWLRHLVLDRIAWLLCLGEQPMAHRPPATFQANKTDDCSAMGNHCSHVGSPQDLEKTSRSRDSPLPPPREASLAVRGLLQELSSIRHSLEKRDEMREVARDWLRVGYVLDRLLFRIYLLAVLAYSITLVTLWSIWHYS
T2 sequence (Q9JJ16 whole entry): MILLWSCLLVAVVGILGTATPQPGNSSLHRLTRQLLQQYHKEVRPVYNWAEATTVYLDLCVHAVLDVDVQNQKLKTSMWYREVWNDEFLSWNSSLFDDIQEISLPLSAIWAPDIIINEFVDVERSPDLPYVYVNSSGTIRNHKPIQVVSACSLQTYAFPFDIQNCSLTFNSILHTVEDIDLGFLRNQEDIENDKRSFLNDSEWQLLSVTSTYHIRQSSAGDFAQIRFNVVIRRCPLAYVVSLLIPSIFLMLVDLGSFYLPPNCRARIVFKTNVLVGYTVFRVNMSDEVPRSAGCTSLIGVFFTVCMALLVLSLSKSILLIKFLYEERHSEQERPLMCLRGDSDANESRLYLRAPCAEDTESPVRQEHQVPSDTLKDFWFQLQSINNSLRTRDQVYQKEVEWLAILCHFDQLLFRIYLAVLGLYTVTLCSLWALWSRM

D(2) dopamine receptor = D(2) dopamine receptor (Homo sapiens, UniProt P14416); assay: Binding affinity to dopamine receptor D2
D(2) dopamine receptor, sequence (P14416 whole entry): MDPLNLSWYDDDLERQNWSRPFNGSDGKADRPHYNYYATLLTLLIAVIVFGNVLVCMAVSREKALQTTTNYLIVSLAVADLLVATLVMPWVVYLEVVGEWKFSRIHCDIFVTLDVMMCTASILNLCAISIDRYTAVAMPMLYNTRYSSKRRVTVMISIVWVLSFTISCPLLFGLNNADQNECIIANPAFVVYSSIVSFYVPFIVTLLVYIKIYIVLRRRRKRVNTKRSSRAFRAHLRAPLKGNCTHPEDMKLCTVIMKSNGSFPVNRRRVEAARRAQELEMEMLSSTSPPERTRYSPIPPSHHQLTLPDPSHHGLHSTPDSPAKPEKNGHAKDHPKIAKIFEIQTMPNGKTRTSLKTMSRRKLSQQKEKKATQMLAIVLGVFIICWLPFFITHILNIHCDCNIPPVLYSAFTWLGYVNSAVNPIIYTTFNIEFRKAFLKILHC

[3] = molecular target: T3, 5-hydroxytryptamine receptor 4 (Rattus norvegicus, UniProt Q62758); assay: Agonism at 5HT4 receptor in rat tunica muscularis mucosa; type: functional
T3 sequence (Q62758 whole entry): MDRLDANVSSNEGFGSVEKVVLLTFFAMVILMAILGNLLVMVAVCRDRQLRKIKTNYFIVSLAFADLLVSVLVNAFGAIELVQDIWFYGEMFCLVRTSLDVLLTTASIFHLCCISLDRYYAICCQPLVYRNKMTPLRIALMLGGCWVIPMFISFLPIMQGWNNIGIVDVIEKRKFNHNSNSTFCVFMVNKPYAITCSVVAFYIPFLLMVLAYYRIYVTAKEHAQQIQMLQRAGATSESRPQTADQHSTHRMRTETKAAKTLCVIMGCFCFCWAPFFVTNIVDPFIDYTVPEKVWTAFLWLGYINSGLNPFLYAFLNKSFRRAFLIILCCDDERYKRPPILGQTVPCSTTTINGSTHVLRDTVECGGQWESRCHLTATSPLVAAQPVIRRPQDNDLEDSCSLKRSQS

[4] = molecular target: T4, Serotonin 3 receptor (5HT3) (Mus musculus) (UniProt Q9JHJ5+P23979); assay: Antagonism at 5HT3 receptor in mice by von Bezold-Jarisch reflex inhibition at 10 mg/kg, ip; type: functional, organism-based; parameters: dose 10 mg/kg
T4 sequence (P23979 whole entry, looked up): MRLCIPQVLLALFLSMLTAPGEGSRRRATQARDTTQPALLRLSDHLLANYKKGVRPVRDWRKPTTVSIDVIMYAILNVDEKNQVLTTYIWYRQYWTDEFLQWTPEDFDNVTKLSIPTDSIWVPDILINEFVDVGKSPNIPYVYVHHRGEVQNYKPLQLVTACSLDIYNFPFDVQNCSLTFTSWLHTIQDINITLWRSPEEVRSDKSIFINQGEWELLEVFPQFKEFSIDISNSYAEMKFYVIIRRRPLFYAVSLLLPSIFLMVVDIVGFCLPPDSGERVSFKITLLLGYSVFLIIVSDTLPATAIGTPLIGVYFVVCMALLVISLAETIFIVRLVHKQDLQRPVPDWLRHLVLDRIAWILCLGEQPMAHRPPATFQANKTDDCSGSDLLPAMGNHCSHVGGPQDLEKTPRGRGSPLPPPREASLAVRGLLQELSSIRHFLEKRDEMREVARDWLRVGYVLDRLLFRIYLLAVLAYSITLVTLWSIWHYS
T4 sequence (Q9JHJ5 whole entry, looked up): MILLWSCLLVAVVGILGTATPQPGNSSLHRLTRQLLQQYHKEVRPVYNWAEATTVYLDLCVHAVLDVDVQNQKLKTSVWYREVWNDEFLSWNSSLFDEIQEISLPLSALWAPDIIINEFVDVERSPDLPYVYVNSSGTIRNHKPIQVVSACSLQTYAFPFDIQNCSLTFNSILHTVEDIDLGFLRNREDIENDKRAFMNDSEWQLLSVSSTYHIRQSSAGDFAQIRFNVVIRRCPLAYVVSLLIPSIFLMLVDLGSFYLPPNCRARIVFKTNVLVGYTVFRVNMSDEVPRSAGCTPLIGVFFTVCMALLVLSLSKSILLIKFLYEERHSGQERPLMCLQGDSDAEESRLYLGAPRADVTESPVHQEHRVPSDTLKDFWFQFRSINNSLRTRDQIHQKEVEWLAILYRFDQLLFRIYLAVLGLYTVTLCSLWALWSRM

D(1A) dopamine receptor = D(1A) dopamine receptor (Homo sapiens, UniProt P21728); assay: Binding affinity to dopamine receptor D1
D(1A) dopamine receptor, sequence (P21728 whole entry): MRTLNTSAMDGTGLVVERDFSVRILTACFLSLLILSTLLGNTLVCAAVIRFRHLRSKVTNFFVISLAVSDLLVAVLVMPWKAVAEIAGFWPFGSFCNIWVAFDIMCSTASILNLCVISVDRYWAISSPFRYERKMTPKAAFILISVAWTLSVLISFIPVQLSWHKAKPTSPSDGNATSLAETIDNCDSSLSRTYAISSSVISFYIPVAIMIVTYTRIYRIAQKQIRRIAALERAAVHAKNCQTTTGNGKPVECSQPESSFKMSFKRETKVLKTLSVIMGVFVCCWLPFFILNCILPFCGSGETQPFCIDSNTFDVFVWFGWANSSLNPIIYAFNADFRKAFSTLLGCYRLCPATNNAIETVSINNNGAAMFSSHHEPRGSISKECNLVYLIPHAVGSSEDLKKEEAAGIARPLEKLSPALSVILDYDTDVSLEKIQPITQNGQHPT

[5] = molecular target: Beta-2 adrenergic receptor (Homo sapiens, UniProt P07550); assay: Binding affinity to adrenergic beta-2 receptor
Beta-2 adrenergic receptor, sequence (P07550 whole entry): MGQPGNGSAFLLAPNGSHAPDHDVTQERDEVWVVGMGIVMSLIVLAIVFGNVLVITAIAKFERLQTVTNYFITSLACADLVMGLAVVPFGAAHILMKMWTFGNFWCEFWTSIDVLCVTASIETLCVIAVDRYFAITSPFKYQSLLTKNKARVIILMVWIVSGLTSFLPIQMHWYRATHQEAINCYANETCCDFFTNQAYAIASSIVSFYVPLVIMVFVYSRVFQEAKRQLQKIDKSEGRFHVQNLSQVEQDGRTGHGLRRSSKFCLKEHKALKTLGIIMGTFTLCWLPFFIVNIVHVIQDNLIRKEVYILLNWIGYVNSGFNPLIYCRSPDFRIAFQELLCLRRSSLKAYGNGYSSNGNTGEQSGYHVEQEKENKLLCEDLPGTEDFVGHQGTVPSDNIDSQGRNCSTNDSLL

Canis familiaris [6] = assay: Effect on solid gastric emptying in iv dosed dog; type: functional
[7] = Binding affinity to 5HT1 receptor
[8] = molecular target: Beta-1 adrenergic receptor (Homo sapiens, UniProt P08588); assay: Binding affinity to adrenergic beta-1 receptor
Beta-1 adrenergic receptor, sequence (P08588 whole entry): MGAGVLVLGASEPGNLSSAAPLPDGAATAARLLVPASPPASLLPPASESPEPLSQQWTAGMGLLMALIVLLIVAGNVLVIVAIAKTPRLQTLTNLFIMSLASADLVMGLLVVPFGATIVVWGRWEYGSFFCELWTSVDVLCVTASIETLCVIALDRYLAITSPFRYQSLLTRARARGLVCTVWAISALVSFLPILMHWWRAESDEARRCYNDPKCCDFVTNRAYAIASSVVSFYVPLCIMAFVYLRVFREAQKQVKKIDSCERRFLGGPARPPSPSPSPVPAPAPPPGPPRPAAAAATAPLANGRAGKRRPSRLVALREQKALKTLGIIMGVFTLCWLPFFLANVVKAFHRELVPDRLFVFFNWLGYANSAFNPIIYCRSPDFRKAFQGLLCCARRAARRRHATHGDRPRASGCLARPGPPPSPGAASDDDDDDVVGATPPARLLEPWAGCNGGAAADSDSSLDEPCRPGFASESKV

Canis familiaris [9] = assay: Contractile response of the antrum in iv dosed fasted dog; type: functional; conditions: Canis lupus familiaris
[10] = molecular target: T4, Serotonin 3 receptor (5HT3) (Mus musculus); assay: Antagonism at 5HT3 receptor in mice by von Bezold-Jarisch reflex inhibition at 3 mg/kg, ip; type: functional, organism-based; parameters: dose 3 mg/kg
[11] = molecular target: T3, 5-hydroxytryptamine receptor 4; assay: Antagonism at 5HT4 receptor in rat tunica muscularis mucosa; type: functional, tissue-based; conditions: read-out: pA2 (converted)
[12] = molecular target: 5-hydroxytryptamine receptor 4 (Rattus norvegicus) (UniProt Q62758); assay: Antagonism at 5HT4 receptor in rat tunica muscularis mucosa upto 100-1000 nM; type: functional, tissue-based
5-hydroxytryptamine receptor 4 (Rattus norvegicus), sequence (Q62758 whole entry): as the sequence (Q62758 whole entry) above

[13] = molecular target: T4, Serotonin 3 receptor (5HT3) (Mus musculus); assay: Antagonism at 5HT3 receptor in mice by von Bezold-Jarisch reflex inhibition at 0.3 mg/kg, ip; type: functional, organism-based; parameters: dose 0.3 mg/kg
[14] = molecular target: T4, Serotonin 3 receptor (5HT3) (Mus musculus); assay: Antagonism at 5HT3 receptor in mice by von Bezold-Jarisch reflex inhibition at 1 mg/kg, ip; type: functional, organism-based; parameters: dose 1 mg/kg
[15] = molecular target: T4, Serotonin 3 receptor (5HT3) (Mus musculus); assay: Antagonism at 5HT3 receptor in mice by von Bezold-Jarisch reflex inhibition at 1000 mg/kg, ip; type: functional, organism-based; parameters: dose 1000 mg/kg
Salmonella typhi [16] = assay: Mutagenic activity in a GLP study using Salmonella Typhimurium TA97 in presence of S9 fraction at 10-5000 ug/plate; type: toxicity, organism-based; conditions: salmonella enterica subsp. enterica […]
Salmonella typhi [17] = assay: Mutagenic activity in a GLP study using Salmonella Typhimurium TA1538 in presence of S9 fraction at 10-5000 ug/plate; type: toxicity, organism-based; conditions: salmonella enterica subsp. enterica […]
Salmonella typhi [18] = assay: Mutagenic activity in a GLP study using Salmonella Typhimurium TA1535 in presence of S9 fraction at 10-5000 ug/plate; type: toxicity, organism-based; conditions: salmonella enterica subsp. enterica […]
Salmonella typhi [19] = assay: Mutagenic activity in a GLP study using Salmonella Typhimurium TA100 in presence of S9 fraction at 10-5000 ug/plate; type: toxicity, organism-based; conditions: salmonella enterica subsp. enterica […]
Salmonella typhi [20] = assay: Mutagenic activity in a GLP study using Salmonella Typhimurium TA98 in presence of S9 fraction at 10-5000 ug/plate; type: toxicity, organism-based; conditions: salmonella enterica subsp. enterica […]
[21] = molecular target: T1, 5-hydroxytryptamine receptor 4; assay: Inhibition of [3H]GR-113808 binding to 5HT4 receptor in guinea pig striatum at 500 nM; type: tissue-based
[22] = molecular target: 5-hydroxytryptamine receptor 4 (Rattus norvegicus) (UniProt Q62758); assay: Antagonism at 5HT4 receptor in rat tunica muscularis mucosa at 0.1 uM; type: functional, tissue-based
[23] = Canis lupus familiaris, Stomach

T1 sequence (O70528 whole entry): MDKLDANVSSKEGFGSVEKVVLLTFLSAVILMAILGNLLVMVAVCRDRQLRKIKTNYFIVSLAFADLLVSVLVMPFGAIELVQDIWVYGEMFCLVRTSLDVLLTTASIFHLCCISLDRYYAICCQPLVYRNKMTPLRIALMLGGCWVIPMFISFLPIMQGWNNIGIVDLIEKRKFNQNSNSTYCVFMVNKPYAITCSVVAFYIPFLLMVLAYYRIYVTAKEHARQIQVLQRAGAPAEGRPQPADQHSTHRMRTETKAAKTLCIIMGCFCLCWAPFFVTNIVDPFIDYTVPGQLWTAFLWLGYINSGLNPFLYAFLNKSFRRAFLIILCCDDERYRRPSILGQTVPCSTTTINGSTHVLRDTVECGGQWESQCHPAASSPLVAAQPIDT

COc1cc(N)c(Cl)cc1C(=O)OC[C@@H]1CCN2CCC[C@@H]12
Ki [1]: 0.183 nM
Ki [2]: 51 nM
IC50 (D(2) dopamine receptor): > 10000 nM
EC50 [3]: 1.5 nM
inhibition [4]: 0%

COc1cc(N)c(Cl)cc1C(=O)NC1CCN(CCCOc2ccc(F)cc2)CC1OC (stereo not drawn) [CISAPRIDE]
IC50 (D(1A) dopamine receptor): 1700 nM
IC50 [5]: > 10000 nM
ED50 (Canis familiaris [6]; [23]): 0.03 mg/kg
IC50 [7]: > 1000 nM
IC50 [8]: > 10000 nM
ED50 (Canis familiaris [9]): 0.056 mg/kg

CCOc1cc(N)c(Cl)cc1C(=O)NC[C@@H]1CCN2CCC[C@@H]12
Ki [2]: 25 nM
inhibition [10]: 48%
IC50 (D(2) dopamine receptor): 5300 nM
EC50 [3]: 195 nM
inhibition [4]: 89%

O=C(OC[C@@H]1CCN2CCC[C@@H]12)c1c[nH]c2ccc(F)cc12
Ki [1]: 0.7 nM
Ki [2]: 10 nM
Kb [11]: 3.16 nM

Cc1cnc2c(C(=O)NC[C@@H]3CCN4CCC[C@@H]34)cc(Cl)cn12
Kb [11]: 81.3 nM

Cn1cc(C(=O)NC[C@@H]2CCN3CCC[C@@H]23)c2ccccc21
pA2 [12]: inactive

CCc1nc(C(=O)NC[C@@H]2CCN3CCC[C@@H]23)c2ccccn12 (relative stereo)
Kb [11]: 275 nM

CC(C)n1c(=O)n(C(=O)NC[C@@H]2CCN3CCC[C@@H]23)c2ccccc21 (relative stereo)
Ki [1]: 7 nM
Ki [2]: 20.2 nM
inhibition [13]: 0%
EC50 [3]: 374 nM
inhibition [14]: 62%
inhibition [4]: 87%

CC1(C)C(=O)N(C(=O)NC[C@@H]2CCN3CCC[C@@H]23)c2ccccc21
Kb [11]: 100 nM

COc1cc(N)c(Cl)cc1C(=O)NC[C@@H]1CC[N@@+]2(C)CCC[C@@H]12
inhibition [15]: 16%
Ki [1]: 0.35 nM
EC50 [3]: 129 nM

O=C(NC[C@@H]1CCN2CCC[C@@H]12)c1cccn2ccnc12
Kb [11]: 178 nM

COc1cc(N)c(Cl)cc1C(=O)NC[C@H]1CCN2CCC[C@H]12
Activity (Salmonella typhi [16]): Not Active
ED50 (Canis familiaris [6]; [23]): 1 mg/kg
Activity (Salmonella typhi [17]): Not Active
Activity (Salmonella typhi [18]): Not Active
Activity (Salmonella typhi [19]): Not Active
inhibition [10]: 79%
Activity (Salmonella typhi [20]): Not Active
ED50 (Canis familiaris [9]): 0.45 mg/kg
IC50 (D(2) dopamine receptor): 3900 nM
EC50 [3]: 323 nM
inhibition [21]: 18%
inhibition [14]: 20%
inhibition [4]: 87%

Cn1c(C(=O)OC[C@@H]2CCN3CCC[C@@H]23)cc2ccccc21
pA2 [22]: inactive

O=C(OC[C@@H]1CCN2CCC[C@@H]12)c1cc(Cl)cn2ccnc12
Kb [11]: 178 nM

CCc1cc(C(=O)NC[C@@H]2CCN3CCC[C@@H]23)c2ccccn12 (relative stereo)
pA2 [12]: inactive

COc1ccc2[nH]cc(C(=O)OC[C@@H]3CCN4CCC[C@@H]34)c2c1
Kb [11]: 70.8 nM

COc1cc(N)c(Cl)cc1C(=O)N[C@H]1CCN2CCC[C@@H]1C2
ED50 (Canis familiaris [6]; Canis lupus familiaris; Stomach): Active
ED50 (Canis familiaris [9]): 0.015 mg/kg
EC50 [3]: 98 nM
